In the supplement of paper PMC11061612:

Key:
Assay in all cases: Bliss excess, mean over the matrix (fraction); higher = more synergy
[1] = system: CFPAC-1 (Pancreatic Carcinoma)
Summary of the method: (§1)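 Bliss excess equals the observed combination effect minus the expected value EA + EB − EA·EB, where EA and EB are the effects of each agent alone. Combination Emax is the second-highest inhibition within the matrix. Inhibition was scaled from CellTiter-Glo 2.0 luminescence, with 0 set by vehicle wells and 1 by blank wells, after 72 hours of two-drug dosing of cells plated in 1536-well plates.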

[2] = system: NCI-H2595 (Mesothelioma)
Summary of the method: as §1

[3] = system: KARPAS-620 (Plasma Cell Myeloma)
Summary of the method: as §1

[4] = system: LU-99A (Non-Small Cell Lung Carcinoma)
Summary of the method: as §1

[5] = system: MDA-MB-231 (Breast Carcinoma)
Summary of the method: as §1

[6] = system: DSH1 (Bladder Carcinoma)
Summary of the method: as §1

[7] = system: NCI-H1694 (Small Cell Lung Carcinoma)
Summary of the method: as §1

[8] = system: KM-H2 (Hodgkin's Lymphoma)
Summary of the method: as §1

[9] = system: TE-5 (Esophageal Squamous Cell Carcinoma)
Summary of the method: as §1

[10] = system: RH-1 (Ewing's Sarcoma)
Summary of the method: as §1

[11] = system: ES7 (Ewing's Sarcoma)
Summary of the method: as §1

[12] = system: COR-L23 (Non-Small Cell Lung Carcinoma)
Summary of the method: as §1

[13] = system: SK-N-FI (Neuroblastoma)
Summary of the method: as §1

[14] = system: SNU-C5 (Colorectal Carcinoma)
Summary of the method: as §1

[15] = system: SW1783 (Low Grade Glioma)
Summary of the method: as §1

[16] = system: SW780 (Bladder Carcinoma)
Summary of the method: as §1

[17] = system: C3A (Hepatocellular Carcinoma)
Summary of the method: as §1

[18] = system: 697 (B-Lymphoblastic Leukemia)
Summary of the method: as §1

[19] = system: JiyoyeP-2003 (Burkitt's Lymphoma)
Summary of the method: as §1

[20] = system: KARPAS-1106P (B-Cell Non-Hodgkin's Lymphoma)
Summary of the method: as §1

Compound | Bliss excess [1] | Bliss excess [2] | Bliss excess [3] | Bliss excess [4] | Bliss excess [5] | Bliss excess [6] | Bliss excess [7] | Bliss excess [8] | Bliss excess [9] | Bliss excess [10] | Bliss excess [11] | Bliss excess [12] | Bliss excess [13] | Bliss excess [14] | Bliss excess [15] | Bliss excess [16] | Bliss excess [17] | Bliss excess [18] | Bliss excess [19] | Bliss excess [20]
CC(=O)Nc1cccc(-n2c(=O)n(C3CC3)c(=O)c3c(Nc4ccc(I)cc4F)n(C)c(=O)c(C)c32)c1 [Trametinib] + Cc1nc(-c2cn3c(n2)-c2ccc(-c4cnn(C(C)(C)C(N)=O)c4)cc2OCC3)n(C(C)C)n1 [Taselisib] (first compound max 1 µM, 7x7, partner max 10 µM) | 0.148 | 0.0412 | 0.24 | 0.116 | 0.142 | 0.0704 | 0.0583 | 0.0338 | 0.101 | 0.0194 | 0.0164 | 0.162 | 0.033 | 0.0951 | -0.027 | 0.129 | 0.147 | 0.117 | 0.108 | 0.088
CC1(C)CCC(CN2CCN(c3ccc(C(=O)NS(=O)(=O)c4ccc(NCC5CCOCC5)c([N+](=O)[O-])c4)c(Oc4cnc5[nH]ccc5c4)c3)CC2)=C(c2ccc(Cl)cc2)C1 [Venetoclax] + C1CN(CCC1(C(=O)N[C@@H](CCO)C2=CC=C(C=C2)Cl)N)C3=NC=NC4=C3C=CN4 [Capivasertib] (first compound max 1 µM, 7x7, partner max 3 µM) | -0.0274 | -0.0465 | 0.0971 | -0.0702 | -0.0443 | -0.0642 | -0.0418 | -0.0178 | -0.0197 | -0.0353 | -0.0178 | -0.0525 | 0.0002 | -0.0069 | -0.0494 | -0.0335 | -0.0621 | -0.0154 | -0.0144 | -0.0409
CC1(C)CCC(CN2CCN(c3ccc(C(=O)NS(=O)(=O)c4ccc(NCC5CCOCC5)c([N+](=O)[O-])c4)c(Oc4cnc5[nH]ccc5c4)c3)CC2)=C(c2ccc(Cl)cc2)C1 [Venetoclax] + C=CCn1c(=O)c2cnc(Nc3ccc(N4CCN(C)CC4)cc3)nc2n1-c1cccc(C(C)(C)O)n1 [AZD1775] (first compound max 1 µM, partner max 1 µM) | -0.0185 | -0.0316 | 0.0191 | -0.0533 | -0.0666 | -0.0476 | 0.0226 | 0.02 | -0.0412 | -0.0123 | 0.119 | -0.0609 | -0.0076 | -0.0339 | -0.0007 | -0.0244 | -0.0511 | 0.0509 | -0.0263 | 0.0627
CC1(C)CCC(CN2CCN(c3ccc(C(=O)NS(=O)(=O)c4ccc(NCC5CCOCC5)c([N+](=O)[O-])c4)c(Oc4cnc5[nH]ccc5c4)c3)CC2)=C(c2ccc(Cl)cc2)C1 [Venetoclax] + CCN(CCO)CCCOc1ccc2c(Nc3cc(CC(=O)Nc4cccc(F)c4)[nH]n3)ncnc2c1 [AZD2811] (first compound max 1 µM, 7x7, partner max 1 µM) | -0.024 | -0.0146 | 0.169 | -0.0012 | -0.013 | -0.0142 | 0.0477 | 0.0106 | -0.0318 | -0.0548 | 0.0074 | -0.0428 | -0.0456 | 0.0063 | -0.0192 | -0.007 | -0.0359 | 0.0078 | 0.0467 | -0.0125
CC1(C)CCC(CN2CCN(c3ccc(C(=O)NS(=O)(=O)c4ccc(NCC5CCOCC5)c([N+](=O)[O-])c4)c(Oc4cnc5[nH]ccc5c4)c3)CC2)=C(c2ccc(Cl)cc2)C1 [Venetoclax] + CN(C)CCCOc1ccc(-c2ccc3ncc4c(c3c2)n(C2CCOCC2)c(=O)n4C)cn1 [AZD0156] (first compound max 1 µM, 7x7, partner max 1 µM) | 0.0025 | 0.0103 | 0.04 | -0.0375 | 0.0067 | -0.0305 | -0.0001 | -0.0012 | -0.0248 | -0.0098 | 0.0317 | -0.0064 | 0 | -0.0123 | -0.0532 | -0.0031 | -0.0414 | -0.0012 | -0.0128 | 0.0261
